Laboratory results published in US20070049627A1, “Treating vulvodynia using prodrugs of GABA analogs” (priority 2005, published 2007).
Where two headings read alike, the source gives them in different places.

What was measured:
[1] = Randomized, crossover, fed/fasted single-dose pharmacokinetic study of oral sustained release tablets of compound (3); type: in vivo, human; conditions: for AUC of compound (3) in blood as percent of corresponding AUC of gabapentin in blood / maximum intact compound (3) concentration as percent of corresponding peak gabapentin concentration: sustained release tablets oral
Procedure: A randomized, crossover, fed/fasted single-dose study of the safety, tolerability, and pharmacokinetics of oral administration of 1-{[(α-isobutanoyloxyethoxy)carbonyl]aminomethyl}-1-cyclohexane acetic acid (3) in healthy adult subjects was conducted. The oral sustained release dosage form of Example 6 was used in this study. The study was designed to evaluate the performance of this formulation in humans in comparison with the commercial gabapentin capsule formulation (Neurontin®, Pfizer). Twelve healthy adult volunteers (7 males and 5 females) participated in the study. Mean body weight was 75.6 kg. All subjects received two different treatments in a random order with a one-week washout between treatments. The two treatments were: (A) a single oral dose of Example 1 tablets (2×600 mg) after an overnight fast; and (B) a single oral dose of Example 1 tablets (2×600 mg) after a high fat breakfast.
Blood and plasma samples were collected from all subjects prior to dosing, and at 0.5, 1, 1.5, 2, 3, 4, 6, 8, 12, 18, 24, and 36 hours after dosing. Urine samples were collected from all subjects prior to dosing, and complete urine output was obtained at the 0-4 h, 4-8 h, 8-12 h, 12-18 h, 18-24 h, and 24-36 h intervals after dosing. Blood samples were quenched immediately with methanol and stored frozen at […]. Sample aliquots were prepared for analysis of gabapentin and compound (3) using sensitive and specific LC/MS/MS methods.

[2] = in vivo, po
[3] = typical value used for comparison; cited from earlier work
[4] = test system: patients suffering from chronic vulvar pain; conditions: increasing amounts of gabapentin over 12 weeks, cited from earlier work
[5] = Tmax of immediate release formulations following oral administration; conditions: in vivo
[6] = sustained release tablets 2×600 mg oral, fasted subjects
[7] = sustained release tablets 2×600 mg oral, fed subjects

Row | SMILES | Cmax of gabapentin in blood ([1]; healthy adults, single oral dose sustained release tablets 2×600 mg, after a high fat breakfast) [ng/mL] | mean±SD Cmax for gabapentin in blood ([1]; healthy adults, single oral dose sustained release tablets 2×600 mg, fasted) [ng/mL] | AUC of gabapentin in blood ([1]; healthy adults, sustained release tablets 2×600 mg oral, after a high fat breakfast) [ng·h/mL] | mean±SD AUC for gabapentin in blood ([1]; healthy adults, sustained release tablets 2×600 mg oral, fasted) [ng·h/mL] | apparent terminal elimination half-life for gabapentin in blood [1, 6] [h] | gabapentin Tmax (time to peak blood levels) [1, 6] [h] | percent of the gabapentin dose recovered in urine [1, 6] [%] | apparent terminal elimination half-life for gabapentin in blood [1, 7] [h] | percent of the gabapentin dose recovered in urine [1, 7] [%] | increase of exposure to gabapentin in the presence of food compared to fasted subjects ([1]; sustained release tablets 2×600 mg oral, fed vs fasted) [%] | gabapentin Tmax (time to peak blood levels) ([1]; sustained release tablets 2×600 mg oral, in the presence of food) [h] | AUC of compound (3) in blood as percent of corresponding AUC of gabapentin in blood ([1]; fasted subjects) [%] | maximum intact compound (3) concentration as percent of corresponding peak gabapentin concentration ([1]; fasted subjects) | AUC of compound (3) in blood as percent of corresponding AUC of gabapentin in blood ([1]; fed subjects) [%] | maximum intact compound (3) concentration as percent of corresponding peak gabapentin concentration ([1]; fed subjects) | Tmax [2] [h] | typical Tmax of immediate release gabapentin [3] [h] | patients with partial or complete relief of vulvar pain symptoms ([4]; amitriptyline non-responders) | patients reporting side effects such as headaches, nausea, vomiting, fatigue, and dizziness [4] | Tmax [5] [h]
1 | CC(OC(=O)NCC1(CC(=O)O)CCCCC1)OC(=O)C(C)C (stereo not drawn) [compound (3), 1-{[(α-Isobutanoyloxyethoxy)carbonyl]aminomethyl}-1-Cyclohexane Acetic Acid] | 6240 ± 1550 | 4210 ± 1150 | 83000 ± 21800 | 54500 ± 12200 | 6.47 ± 0.77 | 5.08 ± 1.62 | 46.5±15.8 | 5.38 ± 0.80 | 73.7±7.2 | 52 | 8.40 ± 2.07 | 0.3 | approximately 1.0% | < 0.1 | approximately 0.3% | 2 to 2.6 |  |  |  | 
2 | NCC1(CC(=O)O)CCCCC1 [gabapentin] |  |  |  |  |  |  |  |  |  |  |  |  |  |  |  |  | 2 to 4 | Eighty-two | over half the patients | 2.8 to 3.3
